# According to patent publication US11911353B2, “Fatty acid synthase inhibitor and application thereof” (Jiangnan University, priority 2019, dated 2024):
# Experiments:
# [1] = tested on: prostate cancer cells PC-3; assay: MTT tumor proliferation IC50, PC-3; format: cell-based; conditions: 72 hours of incubation
# Text: (§1) IC50 (half maximal inhibitory concentration) refers to the half inhibitory concentration of a measured antagonist. It can indicate that a certain concentration of a certain drug or substance (inhibitor) induces tumor cell apoptosis by 50%, and this concentration is referred to as 50% inhibitory concentration, namely, the corresponding concentration when the ratio of apoptotic cells to the total number of cells is equal to 50%. The IC50 value can be used to measure the ability of a drug to induce apoptosis, that is, the higher the inducing ability, the lower the value, which also can indicate the tolerance degree of a certain cell to a drug on the contrary. • (1) Cells in the logarithmic phase are collected, the concentration of a cell suspension is adjusted, it is appropriate to place 100 μl cells in each well of a 96-well plate, the cells are inoculated into the plate to adjust the density of to-be-detected cells to be 1000-10000 cells/well, and edge wells are filled with sterile PBS. • (2) The cells are incubated under 5% CO2 at 37° C., an original culture medium is discarded after complete cell adherence, 200 μl of 1 wt % FBS culture medium containing 0.01 μM, 0.1 μM, 1 μM, 5 μM and 10 μM compound I-1 or cerulenin is added into each well, and there are 6 wells run in duplicate. An equal volume of DMSO is added as a negative control. • (3) After 72 hours of incubation, the cells are photographed for state recording, an original culture medium is discarded, and 100 μl of serum-free culture medium containing 0.5 mg/ml MTT (3-(4,5-dimethylthiazole-2)-2,5-diphenyltetrazolium bromide, trade name thiazolyl blue) is added into each well. • (4) After 2-4 hours of incubation, an original culture medium is discarded, and 150 μl of dimethyl sulfoxide (DMSO) is added into each well and shaken at 300 rpm for 10 minutes to fully dissolve purple crystals. • (5) The absorbance of each well at OD570 nm is measured by an enzyme-linked immunodetection instrument, the absorbance at OD630 nm is used as a reference, dual-wavelength measurement is carried out, and survival rate results are calculated according to the following formula: Cell survival rate=(OD570−OD630)/(OD570 negative control−OD630 negative control);
# (§2) wherein, OD570: OD570 value of each treatment group; OD630: OD630 value of each treatment group; OD570 control: OD570 value of the negative control group; OD630 control: OD630 value of the negative control group. • (6) The survival rate results are processed with graphpad 6.0 software according to the concentration gradient, the analysis mode is log (inhibitor) vs. Nonlinear regression (curve fit), and the calculated IC50 value is expressed as x+/−SD.
# (§3) The FASN enzyme activity measurement method shown in Experimental Example 18 is used to detect the effects of different substances on FASN enzyme activity. The method shown in Experimental Example 19 is used to detect the effects of different substances on the proliferation of tumor cells, cerulenin is used as a control, and the inhibition rates (%) of different substances on FASN enzyme activity and inhibition rates (IC50 nM) on tumor proliferation are calculated.
# [2] = tested on: colon cancer cells HCT116; assay: MTT tumor proliferation IC50, HCT116; format: cell-based; conditions: Homo sapiens, HCT-116, 72 hours of incubation
# Text: as §1, §2, §3
# [3] = tested on: prostate cancer cells PC3; assay: Cell division of PC3 cells, CFSE flow cytometry (FIG. 4); format: cell-based; conditions: 10 μM, 24 hours, versus cells without compound
# Text: […]
# preadipocytes OP9 = assay: Lipid droplet formation in preadipocytes OP9, oil red O staining (FIG. 6); format: cell-based; conditions: 20 μM, differentiation with 1 μM rosiglitazone, OD510
# Method: The effect of the compound shown as the formula I-1 on preadipocytes OP9 is detected: • (1) The cancer cells in the logarithmic growth phase are taken and inoculated into a 6 cm culture dish with the inoculation density of 2*10^6 cells, and incubated under 5% CO2 at 37° C. • (2) After cell adherence, 6 ml of 10% FBS culture medium containing 20 μM of the compound shown as the formula I is added into each dish with the culture medium as a negative control; cerulenin as a positive control; and 1 μM rosiglitazone (RSG) is used for differentiation. • (3) To observe the formation of lipid droplets, cells were incubated with 4% paraformaldehyde solution for 30 min at room temperature, washed with phosphate-buffered saline (PBS), and then stained with 0.5% oil red O in 60% isopropanol. • (4) After washing with distilled water, the stained cells were observed through a microscope, and then oil red O was extracted with isopropanol for quantification. This quantification was performed by measuring the absorbance of isopropanol solutions of oil red O at 510 nm.
# nematodes = assay: Accumulation of lipid droplets in nematodes, oil red staining (FIG. 7); format: in vivo; conditions: 10 μM, 9 days
# Method: Nematodes are taken and resuspended in an M9 buffer, 3 ml of nematode suspension is added into each test tube, the compound shown as the formula I is added into an experimental group to make the final concentration reach 10 μM, a group with no addition of the compound shown as the formula I is used as a control, the suspension is subjected to shaking culture on a shaker at 200 rpm/min, oil red staining is carried out after 9 days, the suspension is placed on a glass slide for observing the lipid droplet condition under a microscope.
structure (smiles),measurement,setting,value
O=C(CCCC(=O)Nc1ccc(Br)cc1)N/N=C/c1cc(Br)ccc1O [Compound I-1],IC50,[1],9 nM
same,IC50,[2],13 nM
same,split peak number (cell division),[3],significantly reduced
same,number of lipid droplets in cells OP9,preadipocytes OP9,reduced significantly
same,accumulation of lipid droplets in nematodes,nematodes,significantly lower than that of the control group
